Data reported in US6369088B2, “Substituted 3-phenyl-5-alkoxy-1,3,4-oxadiazol-2-ones, their preparation and their use as pharmaceuticals” (Aventis Pharma Deutschland GmbH, priority 2000, dated 2002).

molecular target: T1, hormone-sensitive lipase (HSL) (Rattus norvegicus, UniProt P15304); test: HSL enzyme assay: [3H]trioleoylglycerol hydrolysis by partially purified HSL; type: biochemical; settings: partially purified HSL from rat fat cells; [3H]trioleoylglycerol substrate; 37° C., 30 min; read-out: IC50
T1 construct: Isolated rat fat cells were obtained from epididymal adipose tissue; from tissue; host or cells: rat epididymal adipose tissue (isolated fat cells, Wistar rats)
T1 sequence (P15304 1-768 isoform P15304-2): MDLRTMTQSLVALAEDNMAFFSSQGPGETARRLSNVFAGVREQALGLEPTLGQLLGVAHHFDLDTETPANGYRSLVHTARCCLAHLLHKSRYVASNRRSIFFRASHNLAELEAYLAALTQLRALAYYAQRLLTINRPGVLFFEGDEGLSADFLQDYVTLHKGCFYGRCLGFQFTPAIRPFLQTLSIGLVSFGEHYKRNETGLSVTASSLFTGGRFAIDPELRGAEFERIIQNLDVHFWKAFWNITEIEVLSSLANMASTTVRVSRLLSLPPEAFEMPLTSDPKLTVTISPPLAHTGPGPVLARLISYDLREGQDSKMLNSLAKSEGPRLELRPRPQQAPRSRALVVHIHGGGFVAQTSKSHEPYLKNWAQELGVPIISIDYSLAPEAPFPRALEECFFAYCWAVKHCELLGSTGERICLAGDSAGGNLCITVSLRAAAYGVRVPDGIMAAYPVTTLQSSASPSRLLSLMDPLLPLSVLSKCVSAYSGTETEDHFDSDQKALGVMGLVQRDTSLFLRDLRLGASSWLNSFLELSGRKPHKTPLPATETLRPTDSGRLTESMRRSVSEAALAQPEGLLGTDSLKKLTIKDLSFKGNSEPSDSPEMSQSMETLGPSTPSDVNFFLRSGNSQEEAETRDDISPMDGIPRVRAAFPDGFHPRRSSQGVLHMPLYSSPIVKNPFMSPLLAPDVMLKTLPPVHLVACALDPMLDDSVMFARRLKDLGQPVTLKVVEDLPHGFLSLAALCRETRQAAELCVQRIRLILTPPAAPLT
Method: The effect of the compounds of the invention on HSL was tested using the following enzyme assay system:
Preparation of Partially Purified HSL:
The fat cells from 10 rats were washed three times by flotation with 50 ml each time of homogenization buffer ([…] tris/HCl, pH 7.4, 0.25 M sucrose, 1 mM EDTA, 1 mM DTT, 10 μg/ml leupeptin, 10 μg/ml antipain, 20 μg/ml pepstatin) and finally taken up in 10 ml of homogenization buffer. The fat cells were homogenized in a Teflon-in-glass homogenizer (Braun-Melsungen) by 10 strokes at 1500 rpm and 15° C. The homogenate was centrifuged (Sorvall SM24 tubes, 5000 rpm, 10 min, 4° C.). The subnatant between the fatty layer at the top and the pellet was removed and the centrifugation was repeated. The subnatant resulting therefrom was recentrifuged (Sorvall SM24 tubes, 20000 rpm, 45 min, 4° C.). […] After the mixture had been incubated at 4° C. for 60 min (shaking at 15-min intervals), it was centrifuged (Sorvall SM24 tubes, 3000 rpm, 10 min, 4° C.). The supernatant was adjusted to pH 5.2 by adding glacial acetic acid and incubated at 4° C. for 30 min. The precipitates were collected by centrifugation (Sorvall SS34, 12000 rpm, 10 min, 4° C.) and suspended in 2.5 ml of 20 mM tris/HCl, pH 7.0,1 mM EDTA, 65 mM NaCl, 13% sucrose, 1 mM DTT, 10 μg/ml leupeptin/pepstatin/antipain. The suspension was dialyzed against 25 mM tris/HCl, pH 7.4, 50% glycerol, 1 mM DTT, 10 μg/ml leupeptin, pepstatin, antipain at 4° C. overnight and then loaded onto a hydroxy apatite column (0.1 g per 1 ml of suspension, equilibrated with 10 mM potassium phosphate, pH 7.0, 30% glycerol, 1 mM DTT). The column was washed with four volumes of equilibration buffer at a flow rate of 20 to 30 ml/h. The HSL was eluted with one volume of equilibration buffer containing 0.5 M potassium phosphate, and then dialyzed (see above) and concentrated 5- to 10-fold by ultrafiltration (Amicon Diaflo PM 10 filter) at 4° C. The partially purified HSL can be stored at −70° C. for 4 to 6 weeks.
To prepare the substrate, 25-50 μCi of [^3H]trioleoylglycerol (in toluene), 6.8 μmol of unlabeled trioleoylglycerol and 0.6 mg of phospholipids (phosphatidylcholine/phosphatidylinositol 3:1 w/v) were mixed, dried with N2 and then taken up in 2 ml of 0.1 M KPi (pH 7.0) by ultrasonic treatment (Branson 250, microtip, setting 1-2, 2×1 min at 1-min intervals). After addition of 1 ml of KPi and renewed ultrasonic treatment (4×30 sec on ice in 30-sec intervals), 1 ml of 20% BSA (in KPi) was added (final concentration of trioleoylglycerol 1.7 mM). For the reaction, 100 μl of substrate solution were pipetted into 100 μl of HSL solution (HSL prepared as above, diluted in 20 mM KPi, pH 7.0, 1 mM EDTA, 1 mM DTT, 0.02% BSA, 20 μg/ml pepstatin, 10 μg/ml leupeptin) and incubated at 37° C. for 30 min. […] After phase separation, one equivalent of the upper phase (1 ml) was removed and the radioactivity was determined by liquid scintillation measurement.
Substances were normally tested in four independent mixtures. The inhibition of the HSL enzymatic activity by a test substance was determined by comparison with an uninhibited control reaction. The IC50 was calculated via an inhibition plot with at least 10 concentrations of the test substance. The data was analyzed using the software package GRAPHIT, Elsevier-BIOSOFT.

Row | IC50 [nM] | Molecule
1 | 1000 | COc1nn(-c2ccc(NC(=O)Cc3ccc(Cl)cc3)cc2)c(=O)o1 [Example 30, 5-Methoxy-3-(4-(4-chlorophenylacetylamino)phenyl)-3H-(1,3,4)oxadiazol-2-one]
2 | 100 | COc1nn(-c2ccc(NC(=O)OCc3ccccc3)c(C)c2)c(=O)o1 [Example 41, 5-Methoxy-3-(4-(benzyloxycarbonylamino)-3-methylphenyl)-3H-(1,3,4)oxadiazol-2-one]

Row | Molecule | IC50 [nM]
3 | 5-Methoxy-3-[3-[(3-trifluoromethylphenoxy)benzylamino]phenyl]-3H-[1,3,4]oxadiazol-2-one trifluoroacetate [Example 166] | 200

system: not given; test: not given; settings: not given

Row | Molecule | melting point [°C]
4 | CNc1ccc(-n2nc(OC)oc2=O)cc1OCc1ccc(F)cc1 [Example 55, 5-Methoxy-3-(3-(4-fluorobenzyloxy)-4-methylaminophenyl)-3H-(1,3,4)oxadiazol-2-one] | 98
5 | COc1nn(-c2cccc(N(Cc3ccccc3)Cc3ccccc3)c2)c(=O)o1 [Example 57, 5-Methoxy-3-(3-dibenzylaminophenyl)-3H-(1,3,4)oxadiazol-2-one] | 71
6 | COc1nn(-c2ccc(NC(=O)Nc3ccccn3)cc2)c(=O)o1 [Example 59, 5-Methoxy-3-(4-(pyrid-2-yl)aminocarbonylaminophenyl)-3H-(1,3,4)oxadiazol-2-one] | 81
7 | COc1nn(-c2ccc(N)cc2Cl)c(=O)o1 [Example 63, 5-Methoxy-3-(4-amino-2-chlorophenyl)-3H-(1,3,4)oxadiazol-2-one] | 126
8 | COc1nn(-c2ccc([N+](=O)[O-])cc2Cl)c(=O)o1 [Example 64, 5-Methoxy-3-(2-chloro-4-nitrophenyl)-3H-(1,3,4)oxadiazol-2-one] | 92
9 | COc1nn(-c2ccc(NC(=O)c3ccc(OC(F)(F)F)cc3)cc2C)c(=O)o1 [Example 66, 5-Methoxy-3-(2-methyl-4-(4-trifluoromethoxybenzoylamino)phenyl)-3H-(1,3,4)oxadiazol-2-one] | 150
10 | COc1nn(-c2ccc(NC(=O)OCc3ccccc3)cc2Cl)c(=O)o1 [Example 67, 5-Methoxy-3-(2-chloro-4-benzyloxycarbonylaminophenyl)-3H-(1,3,4)oxadiazol-2-one] | 150
11 | COc1nn(-c2ccc(NC(=O)c3ccc(Cl)c(Cl)c3)cc2)c(=O)o1 [Example 72, 5-Methoxy-3-(4-(3,4-dichlorobenzoylamino)phenyl)-3H-(1,3,4)oxadiazol-2-one] | 200
12 | COc1nn(-c2ccc(NC(=O)C(C)(C)Oc3ccc(Cl)cc3)cc2)c(=O)o1 [Example 73, 5-Methoxy-3-(4-(2-(4-chlorophenoxy)-2-methylpropionylamino)phenyl)-3H-(1,3,4)oxadiazol-2-one] | 153
13 | Cc1cc(-n2nc(OC(C)(C)C)oc2=O)ccc1NC(=O)OCc1ccccc1 [Example 78, 5-tert-Butoxy-3-(3-methyl-4-benzyloxycarbonylaminophenyl)-3H-(1,3,4)oxadiazol-2-one] | 113
14 | COc1nn(-c2ccc(NC(=O)c3ccc(C(F)(F)F)cc3)c(OCc3ccccc3)c2)c(=O)o1 [Example 86, 5-Methoxy-3-(3-benzyloxy-4-(4-trifluoromethylbenzoylamino)phenyl)-3H-(1,3,4)oxadiazol-2-one] | 159
15 | COc1ccc2cc(C(=O)Nc3ccc(-n4nc(OC)oc4=O)cc3)oc2c1 [Example 90, 5-Methoxy-3-(4-(6-methoxybenzofuran-2-yl-carbonylamino)phenyl)-3H-(1,3,4)oxadiazol-2-one] | 191

More lines, now with the values ahead:

Row | melting point [°C] | Molecule
16 | 95 | COc1nn(-c2cccc(N)c2)c(=O)o1 [Example 56, 5-Methoxy-3-(3-aminophenyl)-3H-(1,3,4)oxadiazol-2-one]
17 | 177 | COc1nn(-c2ccc(NC(=O)OCc3ccc(Cl)cc3)cc2)c(=O)o1 [Example 70, 5-Methoxy-3-(4-(4-chlorobenzyloxycarbonylamino)phenyl)-3H-(1,3,4)oxadiazol-2-one]
18 | 119 | Cc1cc(-n2nc(OC(C)C)oc2=O)ccc1NC(=O)OCc1ccccc1 [Example 75, 5-isopropoxy-3-(3-methyl-4-benzyloxycarbonylaminophenyl)-3H-(1,3,4)oxadiazol-2-one]
19 | 114 | CCCCOC(=O)Nc1ccc(-n2nc(OC(C)C)oc2=O)cc1C [Example 76, 5-isopropoxy-3-(3-methyl-4-butyloxycarbonylaminophenyl)-3H-(1,3,4)oxadiazol-2-one]
20 | 201 | Cc1cc(-n2nc(OC(C)C)oc2=O)ccc1NC(=O)Nc1cccc(Cl)c1 [Example 77, 5-isopropoxy-3-(3-methyl-4-(3-chlorophenylaminocarbonylamino)phenyl)-3H-(1,3,4)oxadiazol-2-one]
21 | 206 | COc1nn(-c2ccc(NC(=O)NC3Cc4ccccc4C3)c(C)c2)c(=O)o1 [Example 81, 5-Methoxy-3-(3-methyl-4-(indan-2-ylaminocarbonylamino)phenyl)-3H-(1,3,4)oxadiazol-2-one]
22 | 229 | COc1nn(-c2ccc(NC(=O)NCc3cccnc3)c(C)c2)c(=O)o1 [Example 82, 5-Methoxy-3-(3-methyl-4-(pyrid-3-ylmethylaminocarbonylamino)phenyl)-3H-(1,3, 4)oxadiazol-2-one]
23 | 232 | COc1nn(-c2ccc(NC(=O)OCc3cccnc3)c(C)c2)c(=O)o1 [Example 83, 5-Methoxy-3-(3-methyl-4-(pyrid-3-ylmethoxycarbonylamino)phenyl)-3H-(1,3,4)oxadiazol-2-one]
24 | 144 | COc1nn(-c2ccc(NC(=O)c3ccc(C(C)(C)C)cc3)c(F)c2)c(=O)o1 [Example 87, 5-Methoxy-3-(3-fluoro-4-(4-tert-butylbenzoylamino)phenyl)-3H-(1,3,4)oxadiazol-2-one]
25 | 141 | COc1nn(-c2ccc(NC(=O)OCC(F)(F)F)c(C)c2)c(=O)o1 [Example 88, 5-Methoxy-3-(3-methyl-4-(2,2,2-trifluoroethoxycarbonylamino)phenyl)-3H-(1,3, 4)oxadiazol-2-one]
26 | 154 | COc1nn(-c2ccc(NC(=O)N3CCCCC3)c(C)c2)c(=O)o1 [Example 89, 5-Methoxy-3-(3-methyl-4-piperidinocarbonylaminophenyl)-3H-(1,3,4)oxadiazol-2-one]
